# Measurements from patent publication US12419307B2, “Mixtures comprising indazole pesticides” (FMC Corporation, priority 2019, dated 2025).
# Like-named read-outs stand apart in the source and are kept apart here.
# Key:
# Format in all cases: in vivo
# [1] = test system: silverleaf whitefly (Bemisia argentifolii Bellows and Perring); assay: Test A: silverleaf whitefly control on cotton or soybean plants, spray, insect mortality after 13 days; settings: Bemisia argentifolii, applied alone, read-out: % Mortality (obs)
# How it was run: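 Cotton (12–14-day) or soybean (5–7-day) plants carrying whitefly eggs were sprayed with compound in 10% acetone/water with non-ionic surfactant. Plants were held 13 days at 28°C and 50–70% RH; mortality was averaged over three replicates. Mixture enhancement was judged against Colby-expected values.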
# [2] = test system: Western Flower Thrips (Frankliniella occidentalis Pergande); assay: Test B: Western Flower Thrips control on bean plants, plant damage rating converted to % plant protection after 7 days; settings: for Plant Damage (obs): Table 3a; for Plant Damage (obs) / Plant Protection (obs): applied alone
# How it was run: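 Sprayed 5- to 7-day-old bean (var. Soleil) plants, 3 replicates, dried 1 h, then infested with 22 to 27 adult thrips and held 7 days at 25° C, 45-55% RH. Feeding damage rated 0-10 and converted as 100−(rating×10) to % plant protection.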
# [3] = test system: Potato Leafhopper (Empoasca fabae Harris); assay: Test C: Potato Leafhopper control on bean plants, insect mortality after 6 days; settings: read-out: % Mortality (obs)
# How it was run: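 Sprays (3 replicates) were applied to 5- to 6-day-old Longio bean plants with one primary leaf excised, which were dried 1 h and infested with 5 adult leafhoppers (18–21 days old). Mortality was scored after 6 days at 19-21° C and 50-70% RH. Mixture enhancement was judged against expected mortality by Colby's equation.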
# [4] = test system: diamondback moth (Plutella xylostella L.); assay: Test E: diamondback moth control on mustard plants, contact and/or systemic, plant damage rating after 6 days
# How it was run: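 Sprayed 10- to 12-day-old mustard plants (3 replicates), dried 1 h, infested with 30-50 neonate larvae, then held 6 days at 24-25 °C, 70% RH. Plant damage visually rated 0 (undamaged) to 10 (dead); mixture effects judged by Colby's equation.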
# [5] = test system: fall armyworm (Spodoptera frugiperda (J. E. Smith)); assay: Test E: fall armyworm control on corn plants, plant damage rating and mortality after 6 days; settings: Spodoptera frugiperda, 144 h, read-out: Plant Protection (obs)
compound,measurement,setting,value
"CC1(NC(=O)c2cccc3nn(-c4cccnc4)cc23)CC1 [Cpd 4, N-(1-methylcyclopropyl)-2-(3-pyridinyl)-2H-indazole-4-carboxamide]",mortality at 50 ppm,"[1]; 2 h, Table 2h",0.9%
same,mortality at 250 ppm,"[1]; 2 h, Table 2h",9.2%
same,mortality at 50 ppm,"[1]; 48 h, Table 2d",4.9%
same,mortality at 250 ppm,"[1]; 48 h, Table 2d",8.3%
same,mortality at 50 ppm,[1]; Table 2a,5.9%
same,mortality at 250 ppm,[1]; Table 2a,11.1%
same,mortality at 50 ppm,[1]; Table 2b,46.7%
same,mortality at 250 ppm,[1]; Table 2b,20%
same,mortality at 50 ppm,[1]; Table 2c,16.1%
same,mortality at 250 ppm,[1]; Table 2c,20.5%
same,mortality at 50 ppm,[1]; Table 2e,29%
same,mortality at 250 ppm,[1]; Table 2e,38.3%
same,mortality at 50 ppm,[1]; Table 2f,15%
same,mortality at 250 ppm,[1]; Table 2f,17.9%
same,mortality at 50 ppm,[1]; Table 2g,30.6%
same,mortality at 250 ppm,[1]; Table 2g,23.1%
same,mortality at 50 ppm,[1]; Table 2i,7%
same,mortality at 250 ppm,[1]; Table 2i,8%
same,pest or weed control at 11.1 ppm,"[2]; Frankliniella occidentalis, 168 h, Table 3e, 11.1 ppm, read-out: Plant Protection (obs)",60%
same,pest or weed control at 36.8 ppm,"[2]; Frankliniella occidentalis, 168 h, Table 3e, 36.8 ppm, read-out: Plant Protection (obs)",76.7%
same,pest or weed control at 11.1 ppm,"[2]; Frankliniella occidentalis, 168 h, Table 3f, 11.1 ppm, read-out: Plant Protection (obs)",73.3%
same,pest or weed control at 36.8 ppm,"[2]; Frankliniella occidentalis, 168 h, Table 3f, 36.8 ppm, read-out: Plant Protection (obs)",90%
same,pest or weed control at 11.1 ppm,"[2]; Frankliniella occidentalis, 168 h, Table 3g, 11.1 ppm, read-out: Plant Protection (obs)",20%
same,pest or weed control at 36.8 ppm,"[2]; Frankliniella occidentalis, 168 h, Table 3g, 36.8 ppm, read-out: Plant Protection (obs)",73.3%
same,pest or weed control at 2.93 ppm,"[2]; Frankliniella occidentalis, 168 h, Table 3d, 2.93 ppm, read-out: Plant Protection (obs)",50%
same,pest or weed control at 11.1 ppm,"[2]; Frankliniella occidentalis, 168 h, Table 3d, 11.1 ppm, read-out: Plant Protection (obs)",60%
same,pest or weed control at 16.1 ppm,"[2]; Frankliniella occidentalis, 168 h, Table 3d, 16.1 ppm, read-out: Plant Protection (obs)",86.7%
same,pest or weed control at 36.8 ppm,"[2]; Frankliniella occidentalis, 168 h, Table 3d, 36.8 ppm, read-out: Plant Protection (obs)",93.3%
same,Plant Damage (obs),[2]; 11.1 ppm,43.3%
same,Plant Damage (obs),[2]; 36.8 ppm,86.7%
same,Plant Protection (obs),"[2]; Table 3b, 11.1 ppm",40.0%
same,Plant Protection (obs),"[2]; Table 3b, 36.8 ppm",86.7%
same,Plant Protection (obs),"[2]; Table 3c, 11.1 ppm",36.7%
same,Plant Protection (obs),"[2]; Table 3c, 36.8 ppm",70.0%
same,mortality at 50 ppm,[3]; Table 4a,7.1%
same,mortality at 250 ppm,[3]; Table 4a,6.7%
same,mortality at 50 ppm,[3]; Table 4b,0%
same,mortality at 250 ppm,[3]; Table 4b,14.3%
same,mortality at 50 ppm,[3]; Table 4c,26.7%
same,mortality at 250 ppm,[3]; Table 4c,0%
same,Plant Protection (obs),"[4]; Table 6a, 50 ppm",0.0
same,Plant Protection (obs),"[4]; Table 6a, 250 ppm",0.0
same,Plant Protection (obs),"[4]; Table 6b, 50 ppm",0.0
same,Plant Protection (obs),"[4]; Table 6b, 250 ppm",0.0
same,pest or weed control at 50 ppm,[5]; Table 6e,0%
same,pest or weed control at 250 ppm,[5]; Table 6e,0%
same,pest or weed control at 50 ppm,[5]; Table 6f,0%
same,pest or weed control at 250 ppm,[5]; Table 6f,0%
same,pest or weed control at 50 ppm,[5]; Table 6g,0%
same,pest or weed control at 250 ppm,[5]; Table 6g,20%
same,pest or weed control at 50 ppm,[5]; Table 6i,0%
same,pest or weed control at 250 ppm,[5]; Table 6i,0%
same,pest or weed control at 50 ppm,[5]; Table 6h,0%
same,pest or weed control at 250 ppm,[5]; Table 6h,20%
same,pest or weed control at 50 ppm,[5]; Table 6d,0%
same,pest or weed control at 250 ppm,[5]; Table 6d,0%
"O=C(NC1(C(F)F)CC1)c1cccc2nn(-c3cccnc3)cc12 [Cpd 5, N-[1-(difluoromethyl)cyclopropyl]-2-(3-pyridinyl)-2H-indazole-4-carboxamide]",mortality at 50 ppm,"[1]; 2 h, Table 2h",0%
same,mortality at 250 ppm,"[1]; 2 h, Table 2h",6.9%
same,mortality at 50 ppm,"[1]; 48 h, Table 2d",8.9%
same,mortality at 250 ppm,"[1]; 48 h, Table 2d",11.7%
same,mortality at 50 ppm,[1]; Table 2a,17%
same,mortality at 250 ppm,[1]; Table 2a,13.5%
same,mortality at 50 ppm,[1]; Table 2b,49%
same,mortality at 250 ppm,[1]; Table 2b,19.2%
same,mortality at 50 ppm,[1]; Table 2c,56.5%
same,mortality at 250 ppm,[1]; Table 2c,41.1%
same,mortality at 50 ppm,[1]; Table 2e,56.3%
same,mortality at 250 ppm,[1]; Table 2e,11.2%
same,mortality at 50 ppm,[1]; Table 2f,84.4%
same,mortality at 250 ppm,[1]; Table 2f,55.1%
same,mortality at 50 ppm,[1]; Table 2g,30%
same,mortality at 250 ppm,[1]; Table 2g,73.4%
same,mortality at 50 ppm,[1]; Table 2i,0%
same,mortality at 250 ppm,[1]; Table 2i,0%
same,pest or weed control at 0.4 ppm,"[2]; Frankliniella occidentalis, 168 h, Table 3e, 0.4 ppm, read-out: Plant Protection (obs)",70%
same,pest or weed control at 2 ppm,"[2]; Frankliniella occidentalis, 168 h, Table 3e, 2 ppm, read-out: Plant Protection (obs)",26.7%
same,pest or weed control at 0.4 ppm,"[2]; Frankliniella occidentalis, 168 h, Table 3f, 0.4 ppm, read-out: Plant Protection (obs)",33.3%
same,pest or weed control at 2 ppm,"[2]; Frankliniella occidentalis, 168 h, Table 3f, 2 ppm, read-out: Plant Protection (obs)",60%
same,pest or weed control at 0.4 ppm,"[2]; Frankliniella occidentalis, 168 h, Table 3g, 0.4 ppm, read-out: Plant Protection (obs)",13.3%
same,pest or weed control at 2 ppm,"[2]; Frankliniella occidentalis, 168 h, Table 3g, 2 ppm, read-out: Plant Protection (obs)",26.7%
same,pest or weed control at 0.4 ppm,"[2]; Frankliniella occidentalis, 168 h, Table 3d, 0.4 ppm, read-out: Plant Protection (obs)",43.3%
same,pest or weed control at 2 ppm,"[2]; Frankliniella occidentalis, 168 h, Table 3d, 2 ppm, read-out: Plant Protection (obs)",63.3%
same,Plant Damage (obs),[2]; 0.4 ppm,20.0%
same,Plant Damage (obs),[2]; 2 ppm,40.0%
same,Plant Protection (obs),"[2]; Table 3b, 0.4 ppm",23.3%
same,Plant Protection (obs),"[2]; Table 3b, 2 ppm",36.7%
same,Plant Protection (obs),"[2]; Table 3c, 0.4 ppm",16.7%
same,Plant Protection (obs),"[2]; Table 3c, 2 ppm",40.0%
same,mortality at 50 ppm,[3]; Table 4a,0%
same,mortality at 250 ppm,[3]; Table 4a,26.7%
same,mortality at 50 ppm,[3]; Table 4b,0%
same,mortality at 250 ppm,[3]; Table 4b,6.7%
same,mortality at 50 ppm,[3]; Table 4c,6.7%
same,mortality at 250 ppm,[3]; Table 4c,26.7%
same,Plant Protection (obs),"[4]; Table 6a, 50 ppm",0.0
same,Plant Protection (obs),"[4]; Table 6a, 250 ppm",0.0
same,Plant Protection (obs),"[4]; Table 6b, 50 ppm",0.0
same,Plant Protection (obs),"[4]; Table 6b, 250 ppm",0.0
same,pest or weed control at 50 ppm,[5]; Table 6e,0%
same,pest or weed control at 250 ppm,[5]; Table 6e,0%
same,pest or weed control at 50 ppm,[5]; Table 6f,0%
same,pest or weed control at 250 ppm,[5]; Table 6f,0%
same,pest or weed control at 50 ppm,[5]; Table 6g,0%
same,pest or weed control at 250 ppm,[5]; Table 6g,0%
same,pest or weed control at 50 ppm,[5]; Table 6i,0%
same,pest or weed control at 250 ppm,[5]; Table 6i,13.3%
same,pest or weed control at 50 ppm,[5]; Table 6h,0%
same,pest or weed control at 250 ppm,[5]; Table 6h,0%
same,pest or weed control at 50 ppm,[5]; Table 6d,0%
same,pest or weed control at 250 ppm,[5]; Table 6d,13.3%
